From PMC7796031, “Studies of Coumarin Derivatives for Constitutive Androstane Receptor (CAR) Activation” (Molecules, 2020) come the findings set out here.

A short description of data set [1]: MTT cell cytotoxicity assay of coumarin derivatives. In kind it is cell-based. The following applies: human, Hep 3B cells, 72 h treatment. On the procedure:
The colorimetric assay for cellular growth and survivals described by Hansen et al. with modifications. The MTT (3-(4,5-cimethylthiazol-2yl)-2,5-diphenyltetrazolium bromide, Sigma-Aldrich Inc., Germany) assay was utilized to determine the IC50 value of each compound. Cells (5000 cells/well) were seeded into 96-well plates for 24 h and subsequently the cells were treated with vehicle or tested compounds at pre-determined concentration. After 72 h treatment, MTT solution was added to the final concentration of 0.5 mg/mL and continue cultured for 2 h at 37 °C. Afterward, the cells were lysed with lysis buffer (40% DMF and 20% SDS in H2O) overnight at 37 °C to lysate the cells. The absorbance at 570 nm was then detected by a microplate reader and the IC50 value was calculated.
In general terms: Tetrazolium dyes change colour on reduction, which living cells bring about.

For data set [2], the target named is T1, Constitutive androstane receptor (CAR) (Homo sapiens, UniProt Q14994).
T1 construct: The pGL4-gtPBREM plasmid was transfected into Hep3B cells; endogenous in cells
T1 sequence (Q14994 1-352): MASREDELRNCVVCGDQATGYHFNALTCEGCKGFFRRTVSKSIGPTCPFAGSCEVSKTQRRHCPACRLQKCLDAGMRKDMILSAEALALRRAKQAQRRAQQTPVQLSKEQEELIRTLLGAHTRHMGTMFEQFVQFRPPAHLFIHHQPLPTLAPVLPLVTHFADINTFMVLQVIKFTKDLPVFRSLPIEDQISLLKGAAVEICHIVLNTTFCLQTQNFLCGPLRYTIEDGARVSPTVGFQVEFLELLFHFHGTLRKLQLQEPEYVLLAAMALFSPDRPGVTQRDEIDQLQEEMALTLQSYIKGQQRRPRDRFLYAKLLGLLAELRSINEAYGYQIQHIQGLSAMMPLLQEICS
Description: In vitro CAR activation screening assay (UGT1A1 promoter gtPBREM-pGL4 luciferase reporter in Hep3B-gtPBREM cells). Format: cell-based. The settings on record: Table 2; 10 μM; (luminescence of compound − luminescence of scoparone)/luminescence of scoparone × 100%; read-out: CAR Activation Fold. The source says:
Until now, there is no commercially available high throughput screening method for CAR activation. Traditionally, CAR activation can be detected in western blots by its downstream signals such as UGT1A1, MRP2 or CYP2B6. […] However, this method was slow and pricy. In order to rapidly screen all the compounds for CAR activation at less cost, an in vitro CAR activation screening assay was developed: DNA was extracted from Hep3B cells and UGT1A1 promoter was obtained using PCR amplification. Ligation between UGT1A1 promoter and pGL4 vector was performed and the plasmid was amplified via E. coli replication. The desired plasmid was extracted from E. coli and transfected into Hep3B. The desired colony bearing UGT1A1 promoter-pGL4 plasmid was selected by neomycin. CAR activation was measured by adding tested compounds to Hep3B for several hours and luminescence was measured. Higher activation will get higher luminescence readout. This assay system was validated with two different CAR agonists: CITCO (direct agonist) and scoparone (an indirect agonist). […] Different concentration of scoparone at 1, 5, 10 and 20 μM had been tested either for luciferase assay or downstream UGT1A1 and MRP2 expression (data not shown) and 10 μM was selected to be the best condition for the following work.
After successfully establishing the in vitro assay, all of the coumarin compounds were subjected to the screening (at 10 μM) and their SAR was discussed. Although the reporter system can successfully identify CAR-activating compounds under 8 h and display better efficiency and sensitivity compared with western blots, it only presented a medium luciferase response. According to previous studies, CITCO was reported to only moderately enhance human CAR (less than 2-fold), compared with the enhance provided by TCPOBOP for murine CAR (5- to 10-fold) in luciferase reporter assays. […] Another possibility for the medium response in our reporter system might be the contribution of the whole gtPBREM element which might include response-suppressive elements that was used and the single nucleotide variation of DR3 element which was reported to slightly reduce the original UGT1A1 activity.
The genomic DNA was isolated from Hep3B cells using Wizard® Genomic DNA Purification Kit (Promega, Fitchburg, WI, USA). The promoter region of UGT1A1 gene, gtPBREM element, was amplified by AccuPrime^TM Taq DNA Polymerase High Fidelity Kit (Invitrogen, MA, USA). The sequence of the amplified element was confirmed by DNA sequencing company and cloned into pGL4 luciferase reporter vector. The pGL4-gtPBREM plasmid was transfected into Hep3B cells. The stable pGL4-gtPBREM transfected Hep3B cells, Hep3B-gtPBREM cells, were established after G418 selection. The luciferase activity represented of CAR activation ability was measured using individual established clone. Further, CAR-shRNA was obtained from the Genomic Research Center and transfected into Hep3B-gtPBREM cells. The transient transfected shCAR-Hep3B-gtPBREM cells were used for further luciferase assays.
The Hep3B-gtPBREM cells and shCAR-Hep3B-gtPBREM cells (1.5 × 10^5 cells/well) were seeded into 12-well plates for overnight then pre-determined concentration compounds were added for desired time. After treatment, transfected cells were washed twice in PBS, lysated with 1× passive lysis buffer and luciferase intensity of equal amount of cell lysate was measured by a Synergy HT Multi-Mode Microplate Reader (BioTek, Winooski, VT, USA).

One may read the IC50 as the concentration that inhibits the measured activity by half. Read a low IC50 as higher potency. One may read the melting point as the temperature of the solid-liquid transition. In turn, `CCCCCOc1cc2ccc(=O)oc2cc1OCCCCC` [Compound 47, 6,7-Dipentoxycoumarin] showed a melting point of 57 to 59 °C. Further, in data set [1], half-maximal inhibition (IC50 at 72 h) was put at 31 µM. Also, the activation at 10 µM in data set [2] was -10%.
